Paper PMC10474154, “Pro-arrhythmic effect of escitalopram and citalopram at serum concentrations commonly observed in older patients – a study based on a cohort of 19,742 patients” (eBioMedicine, 2023)
Values joined by “and” are separate entries in the source; they are usually repeats but may differ in a detail not shown here. Equal values may be shown once. “Also recorded” adds a separate entry of the source. Read-outs that look alike come from different tables or passages of the source.

Experiments:
[1] = cited from earlier work
[2] = cited from earlier work; remark: listed apart in the source
[3] = Therapeutic drug monitoring (TDM) serum concentrations in patients; details: for Serum concentration, 10% percentile / Serum concentration, 25% percentile / Serum concentration, 50% percentile / Serum concentration, 75% percentile / Serum concentration, 90% percentile / Serum concentration, maximum / Serum concentration, minimum: trough; for Serum concentration, mean: trough (10-28 h after dose)
Description: (§1) Information regarding age, sex, daily dose and time between last dose and blood sampling was also collected from the database. For patients with multiple TDM measurements, only the last measurement was included. Included patients were divided into four subgroups based on age: (a) < 18, (b) 18–64, (c) 65–80, and (d) > 80 years.
(§2) Measured serum concentrations represent total concentrations, i.e. the sum of bound and unbound drug.
(§3) All patients were included unless they met the exclusion criteria. Exclusion criteria were: (a) serum concentration of citalopram, escitalopram and/or demethylcitalopram outside the limits of quantification (LOQ), (b) blood sampling not performed at trough levels, outside the time interval of 10–28 h after last dose intake, (c) prescribed dose of citalopram or escitalopram less/more than 2.5–80 mg or 2.5–60 mg, respectively, and (d) detection of interacting drugs in the citalopram/escitalopram serum sample. In detail, we screened the samples for CYP2C19 inducers carbamazepine, phenobarbital and phenytoin and the CYP2C19 or –2D6 inhibitors bupropion, fluoxetine, fluvoxamine, paroxetine or levomepromazine.
(§4) Differences in absolute serum concentrations of citalopram, escitalopram and metabolites as well as differences in time between last blood sampling and daily dose was investigated across the age subgroups using Kruskal Wallis test followed by Dunn's test. P-values were Bonferroni corrected by multiplying the P-value by the number of statistical analyses that were performed.

[4] = design: method as in earlier work; details: cited from earlier work
[5] = human, in vivo
Description: as §1, §2, §3, §4

[6] = tested on: human induced pluripotent stem cell-derived cardiomyocytes (hiPSC-CM); assay: Action potential recordings in hiPSC-CM with voltage sensitive dye (FluoVolt, CellOPTIQ); assay type: cell-based; details: for Triangulation effect: 10 times typical concentrations; for Electrical activity of the cells: highest concentrations (100 times typical); for Depolarisation (phase 0) measured by TRise: increasing concentrations; for Early and medium repolarisation (APD30 and APD50): intermediate concentrations; for Triangulation (APD90-APD30) effect: low concentrations; for Late repolarisation: lowest tested concentrations
Protocol: Cryopreserved human induced pluripotent stem cell-derived cardiomyocytes (hiPSC-CM): CDI iCell cardiomycytes^2 01434 CardioTox Kit (Catalog #: R1222, FujiFilm CDI, Madison, WI) were kept in liquid nitrogen until culture according to instructions by the manufacturer. […] All studies were conducted at Clyde Biosciences (Glasgow, Scotland). Cells were cultured in 96-well glass-bottomed plates (MatTek, Ashland, Massachusetts) coated with fibronectin ([…] in PBS supplemented with Ca2+ and Mg2+) (Sigma, St. Louis, Missouri) in a humidified incubator at 37 °C for 3 h. The cell density was 50,000 cells/cm2 (25,000 cells/well). The subsequent maintenance protocols followed manufacturer's instructions using their maintenance medial (FujiFilm CDI Cardiomyocytes Maintenance Media). Experiments were performed between days 4–8. Prior to beginning an experiment, cells were washed in serum-free media (SF media), specifically DMEM (Gibco, ThermoFisher Scientific, UK) supplemented with 10 mM galactose and 10 mM sodium pyruvate.
hiPSC-CM were loaded with 5 μM FluoVolt (ThermoFisher) and the multiwell plate was placed in the CellOPTIQ platform (at Clyde Biosciences Ltd, Glasgow, Scotland). The FluoVolt fluorescence signal was recorded using a 40 × (NA 0.6) objective lens. Excitation wavelength was 480 ± 10 nm, and emitted light was collected by a photomultiplier (PMT) at 510–560 nm. Drugs were supplied by Santa Cruz Biotechnology (Germany) and Toronto Research Chemicals (Canada). Their identity and concentration were blinded from the laboratory personnel. […] 30 min after exposure to the tested drug or vehicle a 20 s recording was taken. Offline analysis was performed using proprietary software (CellOPTIQ®). The following (averaged) parameters were obtained from the AP recordings of 4 independent replicates: cycle length (CL, […]); rise time (Trise, ms) between 10 and 90% of the AP amplitude, and AP durations (APD, ms) from 10% to 90% repolarization at 10% intervals. In this study rate-correction was based on previous studies.[14]
Drugs were tested at 3 concentrations with matched vehicle controls for each concentration. The chosen escitalopram (S-citalopram) concentration was 60 nM. Assuming no protein binding in the in vitro model, this corresponds to a total serum concentration of 136 nM, as escitalopram protein binding is reported at 55–56% (most commonly 56%, which is used in the present study).[15], [16], [17] […] This could vary with age and clinical conditions.[20] […] In a large therapeutic drug monitoring (TDM) study 60 nM was the average total concentration in patients with normal escitalopram metabolism through CYP2C19, and 136 nM was below the average total concentration in poor metabolizers.[7] After administration of racemic citalopram, R-citalopram is reported to be 3 times higher than S-citalopram in a publication by Ji et al.[22] The typical concentration of R-citalopram as well as the S-/R-demethylcitalopram and S-/R-didemethylcitalopram metabolites, were calculated according to ratios from their paper.[22]
Shapiro Wilk tests were used to determine whether the data in this study were normally distributed based on a least-squares fit to a normal function, while Brown–Forsythe test was used to verify homogeneity of variance (Origin version 9, OriginLab Corp., Northampton, Massachusetts). […] Statistical tests were made using a paired t-tests for differences between absolute values, with P-values adjusted for multiple comparisons using the Benjamini-Hochberg procedure (one-way ANOVA). The relationship between AP duration at 90% of repolarization (APD90) and CL or diastolic interval was fit to single or double exponential functions (Origin version 9).

[7] = design: method as in PMID 19841156; details: cited from earlier work
plasma protein = tested on: plasma protein; design: method as in PMID 17375980; details: listed as escitalopram; cited from earlier work
[8] = hiPSC-CM, 10x clinical concentration
[9] = hiPSC-CM, 100x clinical concentration
[10] = hiPSC-CM, all tested concentrations
[11] = hiPSC-CM, clinical concentration

CN(C)CCCC1(c2ccc(F)cc2)OCc2cc(C#N)ccc21 (stereo not drawn) [Citalopram, citalopram]
Relative risk for hospitalization due to ventricular arrhythmia ([1]; older patients (mean age 76), Canadian study): 1.53
Time of maximum concentration after intake (Tmax) [2]: 3 to 4 h
Serum concentration, 10% percentile ([3]; citalopram users): 48 nM
Serum concentration, 25% percentile ([3]; citalopram users): 84 nM
Serum concentration, 50% percentile ([3]; citalopram users): 133 nM
Serum concentration, 75% percentile ([3]; citalopram users): 211 nM
Serum concentration, 90% percentile ([3]; citalopram users): 314 nM
Serum concentration, maximum ([3]; citalopram users): 733 nM
Serum concentration, minimum ([3]; citalopram users): 7 nM
Serum concentration, mean ([3]; citalopram users): 163 nM

CNCCCC1(c2ccc(F)cc2)OCc2cc(C#N)ccc21 (stereo not drawn) [Demethylcitalopram, demethylcitalopram]
Serum concentration, 10% percentile ([3]; citalopram users): 23 nM
Serum concentration, 25% percentile ([3]; citalopram users): 35 nM
Serum concentration, 50% percentile ([3]; citalopram users): 55 nM
Serum concentration, 75% percentile ([3]; citalopram users): 87 nM
Serum concentration, 90% percentile ([3]; citalopram users): 130 nM
Serum concentration, maximum ([3]; citalopram users): 395 nM
Serum concentration, minimum ([3]; citalopram users): 5 nM
Serum concentration, mean ([3]; citalopram users): 68 nM
Serum concentration, 10% percentile ([3]; escitalopram users): 13 nM
Serum concentration, 25% percentile ([3]; escitalopram users): 18 nM
Serum concentration, 50% percentile ([3]; escitalopram users): 26 nM
Serum concentration, 75% percentile ([3]; escitalopram users): 37 nM
Serum concentration, 90% percentile ([3]; escitalopram users): 51 nM
Serum concentration, maximum ([3]; escitalopram users): 329 nM
Serum concentration, minimum ([3]; escitalopram users): 5 nM
Serum concentration, mean ([3]; escitalopram users): 30 nM

N#Cc1ccc2c(c1)COC2(CCCN)c1ccc(F)cc1 (stereo not drawn) [Didemethylcitalopram, didemethylcitalopram]
Serum concentrations associated with sudden death in dogs, relative to humans [4]: 39–155 times
Serum concentration, 10% percentile [5]: 0.82 nM
Serum concentration, 25% percentile [5]: 1.72 nM
Serum concentration, 50% percentile [5]: 3.47 nM
Serum concentration, 75% percentile [5]: 5.90 nM
Serum concentration, 90% percentile [5]: 9.65 nM
Serum concentration, maximum [5]: 35.33 nM
Serum concentration, minimum [5]: 0.34 nM

CN(C)CCC[C@]1(c2ccc(F)cc2)OCc2cc(C#N)ccc21 [R-citalopram]
Concentration relative to S-citalopram after administration of racemic citalopram [2]: 3 times
Triangulation effect ([6]; hiPSC-CM): substantial increase
% Change of cycle length from baseline [6, 8]: -1.96±5.39%
% Change of cycle length from baseline [6, 9]: Quiescent
Concentration that increased triangulation (APD90-APD30) of the action potential ([6]; hiPSC-CM, 30 min exposure): 180 nM
Concentration that reduced medium repolarisation (APD50) ([6]; hiPSC-CM, 30 min exposure): 1800 nM
Effect on cycle length [6, 10]: not affected
% Change of cycle length from baseline [6, 11]: 0.99±7.43%
Electrical activity of the cells ([6]; hiPSC-CM): electrically quiescent
Depolarisation (phase 0) measured by TRise ([6]; hiPSC-CM): No changes; also recorded: No significant increase
Early and medium repolarisation (APD30 and APD50) ([6]; hiPSC-CM): shortening
Triangulation (APD90-APD30) effect ([6]; hiPSC-CM): significantly increased
Late repolarisation ([6]; hiPSC-CM): prolonged

CNCCC[C@]1(c2ccc(F)cc2)OCc2cc(C#N)ccc21 [R-demethylcitalopram]
Concentration dependence of triangulation ([6]; hiPSC-CM): dose-dependent increase
Effect on late repolarisation (APD90) ([6]; hiPSC-CM, 2000 nM): not late repolarisation
% Change of cycle length from baseline [6, 8]: -9.34±2.21 %
% Change of cycle length from baseline [6, 9]: -8.55±6.93 %
Concentration that increased triangulation (APD90-APD30) of the action potential ([6]; hiPSC-CM, 30 min exposure): 2000 nM
Concentration that reduced early repolarisation (APD30) ([6]; hiPSC-CM, 30 min exposure): 2000 nM
Effect on cycle length [6, 10]: limited shortening
% Change of cycle length from baseline [6, 11]: -6.45±4.32 %

N#Cc1ccc2c(c1)CO[C@]2(CCCN)c1ccc(F)cc1 [R-didemethylcitalopram]
Cardiotoxic at therapeutic concentrations ([6]; hiPSC-CM): did not find indications
% Change of cycle length from baseline [6, 8]: -1.09±3.49%
% Change of cycle length from baseline [6, 9]: -1.67±2.65%
Concentration that increased early repolarisation (APD30) ([6]; hiPSC-CM, 30 min exposure): 60 nM
Concentration that reduced triangulation (APD90-APD30) ([6]; hiPSC-CM, 30 min exposure): 6 nM
Effect on cycle length [6, 10]: not affected
% Change of cycle length from baseline [6, 11]: -1.40±5.04%

CN(C)CCC[C@@]1(c2ccc(F)cc2)OCc2cc(C#N)ccc21 [S-citalopram]
Clearance, typical value (CLTV) ([7]; CYP2C19 normal/rapid metabolizer): 26.0 L/h
Clearance, typical value (CLTV) ([7]; CYP2C19 poor/intermediate metabolizer): 19.8 L/h
Absorption rate constant, typical value (KaTV) ([7]; population PK model): 0.8 h⁻¹
Volume of distribution, typical value (VTV) ([7]; population PK model): 947 L
FDA-reported QTc-prolongation ([1]; after intake of 20 mg): 6.6 ms
Serum concentrations per dose, patients >65 years versus adults <40 years [2]: 1.4 times
Average total concentration in CYP2C19 poor metabolizers ([2]; large TDM study): > 136 nM
Average total concentration in patients with normal escitalopram metabolism through CYP2C19 ([2]; large TDM study): 60 nM
Time of maximum concentration after intake (Tmax) ([2]; listed as escitalopram): 3 to 4 h and 3.0 ± 1.5 h
Calculated total serum concentration corresponding to a free concentration of 60 nM (potential pro-arrhythmic activity) ([6]; assuming 56% plasma protein binding): 136 nM
Triangulation effect ([6]; hiPSC-CM): substantial increase
% Change of cycle length from baseline [6, 8]: -2.06±5.36%
% Change of cycle length from baseline [6, 9]: Quiescent
Concentration that increased late repolarisation (APD90) ([6]; hiPSC-CM, 30 min exposure): 60 nM
Concentration that increased triangulation (APD90-APD30) of the action potential ([6]; hiPSC-CM, 30 min exposure): 60 nM
Effect on cycle length [6, 10]: not affected
% Change of cycle length from baseline [6, 11]: 2.14±4.47%
Electrical activity of the cells ([6]; hiPSC-CM): electrically quiescent
Depolarisation (phase 0) measured by TRise ([6]; hiPSC-CM): No changes; also recorded: No significant increase
Early and medium repolarisation (APD30 and APD50) ([6]; hiPSC-CM): shortening
Triangulation (APD90-APD30) effect ([6]; hiPSC-CM): significantly increased
Increase in APD90 ([6]; hiPSC-CM, lowest S-citalopram concentration (60 nM)): 21.9 ms
Late repolarisation ([6]; hiPSC-CM): prolonged
QTc-prolongation corresponding to the APD90 increase ([6]; lowest S-citalopram concentration, translation per ref 33): 6.2 ms
% of serum concentrations above 136 nM [5]: 5.4-15.9%
Plasma protein binding (plasma protein): 55–56% and 56%
Serum concentration, 10% percentile ([3]; escitalopram users): 21 nM
Serum concentration, 25% percentile ([3]; escitalopram users): 33 nM
Serum concentration, 50% percentile ([3]; escitalopram users): 52 nM
Serum concentration, 75% percentile ([3]; escitalopram users): 84 nM
Serum concentration, 90% percentile ([3]; escitalopram users): 126 nM
Serum concentration, maximum ([3]; escitalopram users): 730 nM
Serum concentration, minimum ([3]; escitalopram users): 7 nM
Serum concentration, mean ([3]; escitalopram users): 66 nM

CNCCC[C@@]1(c2ccc(F)cc2)OCc2cc(C#N)ccc21 [S-demethylcitalopram]
Concentration dependence of triangulation ([6]; hiPSC-CM): dose-dependent increase
% Change of cycle length from baseline [6, 8]: -3.81±3.22 %
% Change of cycle length from baseline [6, 9]: -7.22±2.14 %
Concentration that increased late repolarisation (APD90) ([6]; hiPSC-CM, 30 min exposure): 1500 nM
Concentration that increased triangulation (APD90-APD30) of the action potential ([6]; hiPSC-CM, 30 min exposure): 150 nM
Concentration that reduced early repolarisation (APD30) ([6]; hiPSC-CM, 30 min exposure): 1500 nM
Effect on cycle length [6, 10]: limited shortening
% Change of cycle length from baseline [6, 11]: -4.33±3.45 %

N#Cc1ccc2c(c1)CO[C@@]2(CCCN)c1ccc(F)cc1 [S-didemethylcitalopram]
Cardiotoxic at therapeutic concentrations ([6]; hiPSC-CM): did not find indications
% Change of cycle length from baseline [6, 8]: 9.89±8.49%
% Change of cycle length from baseline [6, 9]: 0.09±7.78%
Concentration that increased early repolarisation (APD30) ([6]; hiPSC-CM, 30 min exposure): 15 nM
Concentration that increased late repolarisation (APD90) ([6]; hiPSC-CM, 30 min exposure): 15 nM
Concentration that increased medium repolarisation (APD50) ([6]; hiPSC-CM, 30 min exposure): 15 nM
Concentrations with significant effect on triangulation (APD90-APD30) [6, 10]: No tested concentrations
Effect on cycle length [6, 10]: not affected
Effects on medium to late repolarisation ([6]; hiPSC-CM, at concentrations higher than 15 nM): not present
% Change of cycle length from baseline [6, 11]: 1.42±3.67%
